The test system of one test is A549. The test can be described thus: Antiproliferative activity against human A549 cells by SRB assay. Format: functional, cell-based. A general note: In SRB staining, fixed cells bind dye roughly in proportion to their protein.
For a further test, the system named is HeLa. Description: Antiproliferative activity against human HeLa cells by SRB assay. Format: functional, cell-based.
The target in the next test is Tubulin (Sus scrofa) (UniProt P02554+P02550). Description: Inhibition of purified porcine tubulin polymerization 100 uM by spectrophotometry. It is filed as protein assay.
Tubulin (Sus scrofa), sequence (P02550 whole entry, looked up): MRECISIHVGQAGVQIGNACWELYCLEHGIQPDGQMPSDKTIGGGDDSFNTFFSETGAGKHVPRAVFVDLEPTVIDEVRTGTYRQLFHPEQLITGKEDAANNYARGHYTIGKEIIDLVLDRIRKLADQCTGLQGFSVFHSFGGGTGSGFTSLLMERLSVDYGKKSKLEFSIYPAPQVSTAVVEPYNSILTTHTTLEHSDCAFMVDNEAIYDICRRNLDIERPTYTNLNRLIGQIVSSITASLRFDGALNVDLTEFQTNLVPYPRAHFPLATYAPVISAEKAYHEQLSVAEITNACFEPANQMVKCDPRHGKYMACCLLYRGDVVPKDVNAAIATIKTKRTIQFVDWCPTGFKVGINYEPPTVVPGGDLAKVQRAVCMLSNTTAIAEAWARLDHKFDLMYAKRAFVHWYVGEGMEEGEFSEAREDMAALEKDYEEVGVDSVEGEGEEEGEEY
Tubulin (Sus scrofa), sequence (P02554 whole entry, looked up): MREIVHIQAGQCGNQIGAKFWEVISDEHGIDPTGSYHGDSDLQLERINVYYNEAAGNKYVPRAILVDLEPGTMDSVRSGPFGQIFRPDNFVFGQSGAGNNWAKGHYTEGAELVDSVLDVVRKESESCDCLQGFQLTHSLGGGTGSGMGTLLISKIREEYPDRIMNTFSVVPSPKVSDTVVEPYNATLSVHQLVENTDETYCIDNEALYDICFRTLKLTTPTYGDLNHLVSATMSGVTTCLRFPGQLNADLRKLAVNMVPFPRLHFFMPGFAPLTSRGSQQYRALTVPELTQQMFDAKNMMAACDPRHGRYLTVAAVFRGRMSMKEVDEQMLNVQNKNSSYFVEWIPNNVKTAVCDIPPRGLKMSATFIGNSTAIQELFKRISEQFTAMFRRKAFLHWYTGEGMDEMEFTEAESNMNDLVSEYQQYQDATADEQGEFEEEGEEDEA
The test system of the next test is PC-3. Description: Antiproliferative activity against human PC3 cells by SRB assay. Format: functional, cell-based.

Activity calls are given as the source filed them. The calls are words filed in the database; no cut-off is given here.

As for `COc1ccc(C(=O)CCc2c(OC)cc(OC)c(OC)c2OC)cc1OC`, the 50% inhibitory concentration (IC50) in the test on A549, in the test with HeLa and with PC-3 was > 50 µM throughout. Further, the inhibition (usually the change of the read-out against control, counted positive when it falls) at Tubulin (Sus scrofa) was “inactive”.

For `COC1=CC(=O)C(CCC(=O)c2ccc3c(c2)OCO3)=C(OC)C1=O`, the figures for the concentration for half-maximal inhibition (IC50) with A549, with HeLa and in the test on PC-3 were 8.3 µM, 8.8 µM and 5 µM, respectively. On Tubulin (Sus scrofa), this compound returned an inhibition of 40%.

Consider `COc1cc(O)c(CCC(=O)c2ccc(O)c(OC)c2)c(OC)c1`, for which the IC50 in the test with A549, in the test with HeLa and with PC-3 was > 50 µM in each case. Moreover, the inhibition entry at Tubulin (Sus scrofa) is “Active”.

For the compound `COC1=CC(=O)C(CCC(=O)c2ccc(OC)c(OC)c2)=C(OC)C1=O`, the inhibition result on Tubulin (Sus scrofa) was “inactive”.

Regarding `COc1cc(OC)c(CCC(=O)c2ccc(O)c(OC)c2)c(OC)c1`, the concentration for half-maximal inhibition (IC50) (as a rule, the concentration at which inhibition is half-maximal) in the test with A549 was 40.3 µM; in the test on HeLa, 28.9 µM; in the test on PC-3 it was > 50 µM. The compound further gave an inhibition against Tubulin (Sus scrofa) of 10%.

`COc1cc(OC)c(CCC(=O)c2ccc(OC)c(O)c2)c(OC)c1`: at Tubulin (Sus scrofa), the inhibition result was “Active”.

Turning to `COc1cc(OC)c(CCC(O)c2ccc3c(c2)OCO3)c(OC)c1` (configuration not stated), the IC50 with A549, in the test with HeLa and with PC-3 was > 50 µM each time. Further, the inhibition entry on Tubulin (Sus scrofa) was “Active”.

The record behind these values is ChEMBL document CHEMBL3091429, “Structure-activity relationships of retro-dihydrochalcones isolated from Tacca sp” (J Nat Prod, 2013).
